Data on seven compounds can be found in patent publication US20250115598A1 (Anaxis Pharma Pty Ltd, priority 2021, published 2025).

pIC50, pKd: −log10 of the molar value.

One assay addresses human MLKL (full length) (Homo sapiens (Human), UniProt Q8NB16). Briefly: KINOMEscan binding assay, human MLKL (full length). To be noted: hMLKL, Table 25; read-out: MLKL (KD). The method, boiled down:
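Tagged kinase + immobilized ligand beads + compound; eluted kinase quantified by qPCR. Kinase source: T7 phage lysate (BL21-derived E. coli, 32 °C) or HEK-293 with DNA tag. 11-pt 3-fold series, 1% DMSO, top 30,000 nM (most). Hill fit, slope −1 → Kd.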

The subject of assay [1] is Immortalised Mouse Dermal Fibroblasts (MDFs). The assay can be described thus: Cellular assay: inhibition of TSI induced necroptosis, CellTitre-Glo viability. To be noted: Mus musculus, Fibroblast; MDF, 3 hours TSI cocktail, Table 27; read-out: Inhibition of TSI-induced necroptosis (IC50 cell-based assay) in MDF. How it is done:
Cellular Assay: Screening Compounds for Inhibition of TSI Induced Necroptosis in, 384 Well Plate Format.
• Cell Line ID: Immortalised Mouse Dermal Fibroblasts (MDFs). • Cell Concentration (cells/well): Final cell density is 2200 cells per well. • Cell growth medium: DMEM medium+7.4% Fetal Bovine Serum (FBS). Cells are cultured in Corning 150 cm^2 tissue culture flasks with vented caps at 37° C./10% CO2. • Incubation: Plates were incubated for 30 minutes following addition of compounds and then 3 hours incubation with death stimuli (TSI cocktail) at 37° C./10% CO2 in a humidified incubator. • Compound concentration: 36 μM starting concentration, 1:3 dilution, 10 point • DMSO final concentration (% v/v): 0.3%. Compounds in TSI Cocktail (T: TNF; S: Smac Mimetic; I: IDN-6556) and their Final Concentrations: • rhTNF (100 ng/ml) • Compound a (500 nM)—Smac Mimetic, Tetralogic and SYNthesis Med Chem • IDN-6556 (10 μM)—Selleckchem (S7775)
The cellular assay was carried out according to the following steps: • 1. Each well was prepared by sequential addition of: • a. 40 μL of cell suspension (5.5×10^4 cells/mL) was added to each well to provide a final cell concentration of 2,200 cells per well. • b. After 24 hours, DMSO (control; columns 1-2 and 23-24) or compound in DMSO—addition was performed using acoustic transfer of nL volumes of stock compound to give final test concentrations of 36, 12, 4, 1.3, 0.44, 0.148, 0.049, 0.016, 0.005 and 0.002 μM. All wells were backfilled with DMSO to a final total volume in the well of 100 nL. • c. Following compound/DMSO addition in step (b), Plates were incubated for 30 minutes at 37° C./10% CO2 in a humidified incubator and then 10 μL of 5×TSI cocktail (except to positive controls; columns 2 and 24) was added to each well. • 2. After 3 hours, plate was removed from the 37° C. incubator and equilibrated to room temperature for 15 minutes. • 3. 15 μL of room temperatured CellTitre-Glo2™ (Promega™) was added to each well. • 4. Shook plates for 2 minutes (˜600 rpm) and incubated at room temperature for 15 minutes to allow signal to stabilise. • 5. Read luminescence readout on a plate reader.
Percent viability was calculated for each compound according to equation (2):
[formula] • Wherein RawData is the readout of any cell containing a compound of the invention.
TA is the total activity provided by the luminescence readout from DMSO only wells (columns 2 and 24)=100% viability.
NSA is the non-specific activity provided by DMSO+TSI wells (columns 1 and 23)=0% viability • Curve fitting: 10-point titration curves are fitted with the 4-parameter logistic nonlinear regression model and the IC50 reported is the inflection point of the curve • Analysis: Data was loaded into Dotmatics™ and visualised using the Tibco@ • Spotfire™ software. 10 point titration curves were fitted with the 4 parameter logistic nonlinear regression model and the IC50 reported reflect the inflection point of the curve for curve fitting.
Assay involving the TSI cocktail (T: TNF; S: Smac mimetic; I: IDN-6556): TSI treatment ensures that cells specifically undergo necroptotic cell death. TNF activates the TNF receptor, Smac mimetic directs the signal away from proinflammatory signaling and toward the RIPK1/RIPK3-mediated cell death pathways, and IDN-6556 (Caspase inhibitor) ensures that the apoptotic response is blocked leaving only the programmed necrosis response. The compounds' activity (solution in DMSO) tested in this TSI-induced assay was evaluated by determining the number of viable cells in culture by measuring the amount of ATP present as measured by CelltiterGlo.

The target of a further assay is endogenous MLKL in MDF (Mus musculus (Mouse), UniProt Q9D2Y4). The assay can be described thus: Degradation assay: endogenous MLKL in MDF (western blot). To be noted: MDF cells, 24 h incubation with compound, MLKL adjusted for loading with GAPDH, normalized to DMSO only control, read-out: Degradation of endogenous MLKL in MDF (DC50 cell-based assay). How it is done: Degradation Assay: Screening Compounds Procedure to Evaluate the Activity of Compounds in Degrading Endogenous MLKL in Human and Mouse Cell
The mouse dermal fibroblast (MDF) cell line was seeded the day before the experiment in a 24-well plate at a cell density of […] per well in a volume of 0.5 mL per well and left to attach overnight. The human monocyte cell line (U937) was seeded on the day of the experiment in a 24-well plate at a cell density of […] per well in a volume of 0.5 mL per well.
The compound was diluted in DMSO with a starting concentration of 10 mM and titrated stepwise with a dilution of 1:5. 0.5 μL of the compound dilution was added to the appropriate well to achieve a final concentration of 10; 2; 0.4; 0.08 and 0.016 μM. A DMSO only well was included as control.
The cells were incubated for 24 h in the presence of the compound at 37° C. and 10% CO2.
After the 24 h incubation period, the medium was removed and cells washed with 0.5 mL PBS. The cells were then lysed directly in 60 μL of 1×SDS gel loading buffer.
The cell lysate was heat-denatured at […] for 10 min. 10 μL of lysate per well were run on 18-well 4-15% Criterion TGX stain free gels (BIO-RAD). The proteins were then transferred onto nitrocellulose membrane with a wet transfer protocol in the Criterion Blotter (BIO-RAD).
Membranes were blocked with 5% skim milk in TBST. Primary antibody against MLKL (clone 3H1, MABC604 Merck) was used at 1:2000 dilution in TBST with 1% BSA and left shaking over night at 4° C. After washes with TBST, the membranes were incubated with goat anti-rat IgG HRP-conjugated antibody (Southern Biotech) in 1% skim milk TBST at 1:10000 dilution for 1 h at room temperature. After TBST washes the bands were imaged on the ChemiDoc MP Imaging System (BIO-RAD) with Immobilion Western Chemiluminescent HRP Substrate Forte (Millipore). The loading control GAPDH was probed for with rabbit anti-GAPDH (CST 14C10) at 1:2000 dilution in 1% BSA TBST over night at 4° C. TBST washes were followed by incubation with goat anti-rabbit IgG HRP-conjugated antibody (Southern Biotech) in 1% skim milk TBST at 1:10000 dilution for 1 h at room temperature followed by TBST washes. The signal was detected as described above.
The band intensity was measured in the ImageLab Software (BIO-RAD) and the MLKL values adjusted for loading with GAPDH. The percentage of degradation was calculated by normalizing the compound treated values to the DMSO only control.

endogenous MLKL in MDF, sequence (Q9D2Y4 whole entry): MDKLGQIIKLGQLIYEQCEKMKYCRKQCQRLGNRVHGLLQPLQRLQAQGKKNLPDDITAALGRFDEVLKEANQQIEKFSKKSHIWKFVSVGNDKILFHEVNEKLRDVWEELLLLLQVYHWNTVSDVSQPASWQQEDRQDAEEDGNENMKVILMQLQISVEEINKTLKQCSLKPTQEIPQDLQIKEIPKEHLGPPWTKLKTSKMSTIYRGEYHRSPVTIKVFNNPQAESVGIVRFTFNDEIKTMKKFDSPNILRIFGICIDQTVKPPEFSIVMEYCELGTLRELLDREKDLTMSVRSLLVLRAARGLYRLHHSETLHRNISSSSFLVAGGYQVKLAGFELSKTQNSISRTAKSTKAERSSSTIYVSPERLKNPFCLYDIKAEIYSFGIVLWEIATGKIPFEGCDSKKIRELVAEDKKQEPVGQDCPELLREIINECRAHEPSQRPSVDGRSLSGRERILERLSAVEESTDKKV
human MLKL (full length), sequence (Q8NB16 whole entry): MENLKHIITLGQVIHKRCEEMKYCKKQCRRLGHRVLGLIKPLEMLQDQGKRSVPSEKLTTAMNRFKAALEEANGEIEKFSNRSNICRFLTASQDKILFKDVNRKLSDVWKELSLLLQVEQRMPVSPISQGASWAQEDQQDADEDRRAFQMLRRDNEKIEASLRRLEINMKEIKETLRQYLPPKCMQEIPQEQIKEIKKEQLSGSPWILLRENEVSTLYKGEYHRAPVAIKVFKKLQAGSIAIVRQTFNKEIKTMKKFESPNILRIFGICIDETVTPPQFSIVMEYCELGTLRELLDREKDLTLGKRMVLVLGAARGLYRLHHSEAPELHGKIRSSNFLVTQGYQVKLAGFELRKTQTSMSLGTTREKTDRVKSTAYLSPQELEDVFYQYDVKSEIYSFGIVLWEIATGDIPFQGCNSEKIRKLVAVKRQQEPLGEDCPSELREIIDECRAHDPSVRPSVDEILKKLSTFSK

In the case of `C[C@H](Oc1cc(-c2nn(C)c3c(-c4cnn(C5CCN(C(=O)c6ccc7c(c6)CN(C6CCC(=O)NC6=O)C7=O)CC5)c4)cnc(N)c23)ccc1NS(=O)(=O)C(F)F)c1ccc(F)cc1` (stereo partly drawn) [Compound 1096, N-{4-[4-amino-7-(1-{1-[2-(2,6-dioxopiperidin-3-yl)-1-oxo-2,3-dihydro-1H-isoindole-5-carbonyl]piperidin-4-yl}-1H-pyrazol-4-yl)-1-methyl-1H-pyrazolo[4,3-c]pyridin-3-yl]-2-[(1S)-1-(4-fluorophenyl)ethoxy]phenyl}-1,1-difluoromethanesulfonamide], on human MLKL (full length), the negative logarithm of the Kd (pKd) is above 8.00. The pIC50 in assay [1] is 5.00 to 6.00. Besides, on endogenous MLKL in MDF, the DC50 was below 1 µM.
The matching figures for `C[C@H](Oc1cc(-c2nn(C)c3c(-c4cnn(C5CCN(C(=O)N6CCN(c7cccc8c7C(=O)N(C7CCC(=O)NC7=O)C8=O)CC6)CC5)c4)cnc(N)c23)ccc1NS(=O)(=O)C(F)F)c1ccc(F)cc1` (stereo partly drawn) [Compound 1103, N-(4-{4-amino-7-[1-(1-{4-[2-(2,6-dioxopiperidin-3-yl)-1,3-dioxo-2,3-dihydro-1H-isoindol-4-yl]piperazine-1-carbonyl}piperidin-4-yl)-1H-pyrazol-4-yl]-1-methyl-1H-pyrazolo[4,3-c]pyridin-3-yl}-2-[(1S)-1-(4-fluorophenyl)ethoxy]phenyl)-1,1-difluoromethanesulfonamide]: above 8.00, above 6.00 and below 1 µM.
Consider `Cc1ncsc1-c1ccc(CNC(=O)[C@@H]2C[C@@H](O)CN2C(=O)[C@@H](NC(=O)c2cccc(OCCn3cc(-c4cnc(N)c5c(-c6ccc(NS(=O)(=O)C(F)F)c(O[C@@H](C)c7ccc(F)cc7)c6)nn(C)c45)cn3)c2)C(C)(C)C)cc1` [Compound 1039, (2S,4R)-1-[(2S)-2-({3-[2-(4-{4-amino-3-[4-(difluoromethanesulfonamido)-3-[(1S)-1-(4-fluorophenyl)ethoxy]phenyl]-1-methyl-1H-pyrazolo[4,3-c]pyridin-7-yl}-1H-pyrazol-1-yl)ethoxy]phenyl}formamido)-3,3-dimethylbutanoyl]-4-hydroxy-N-{[4-(4-methyl-1,3-thiazol-5-yl)phenyl]methyl}pyrrolidine-2-carboxamide], for which the pKd on human MLKL (full length) was 6.00 to 8.00. Also, the half-maximal degradation concentration (DC50) on endogenous MLKL in MDF fell in the range of 1 to 10 µM.
On to `C[C@H](Oc1cc(-c2nn(C)c3c(-c4cnn(C5CCN(CCn6cc(CCNc7cccc8c7C(=O)N(C7CCC(=O)NC7=O)C8=O)nn6)CC5)c4)cnc(N)c23)ccc1NS(=O)(=O)C(F)F)c1ccc(F)cc1` (stereo partly shown) [Compound 1128, N-(4-{4-amino-7-[1-(1-{2-[4-(2-{[2-(2,6-dioxopiperidin-3-yl)-1,3-dioxo-2,3-dihydro-1H-isoindol-4-yl]amino}ethyl)-1H-1,2,3-triazol-1-yl]ethyl}piperidin-4-yl)-1H-pyrazol-4-yl]-1-methyl-1H-pyrazolo[4,3-c]pyridin-3-yl}-2-[(1 S)-1-(4-fluorophenyl)ethoxy]phenyl)-1,1-difluoromethanesulfonamide], for which the pIC50 in assay [1] was above 6.00. In addition, the DC50 at endogenous MLKL in MDF was below 1 µM.
Consider `Cn1nc(-c2ccc(NS(=O)(=O)C(F)F)c(F)c2)c2c(N)ncc(-c3cnn(CCCCCCCOc4cccc5c4C(=O)N(C4CCC(=O)NC4=O)C5=O)c3)c21` (stereo not shown) [Compound 1060, N-(4-{4-amino-7-[1-(7-{[2-(2,6-dioxopiperidin-3-yl)-1,3-dioxo-2,3-dihydro-1H-isoindol-4-yl]oxy}heptyl)-1H-pyrazol-4-yl]-1-methyl-1H-pyrazolo[4,3-c]pyridin-3-yl}-2-fluorophenyl)-1,1-difluoromethanesulfonamide], for which the pKd at human MLKL (full length) is above 8.00. Also, the DC50 on endogenous MLKL in MDF fell in the range of 1 to 10 µM.
`Cc1ncsc1-c1ccc(CNC(=O)[C@@H]2C[C@@H](O)CN2C(=O)[C@@H](NC(=O)C2(F)CC2)C(C)(C)C)c(OCCCCCCCCn2cc(-c3cnc(N)c4c(-c5ccc(NS(=O)(=O)C(F)F)c(O[C@@H](C)c6ccc(F)cc6)c5)nn(C)c34)cn2)c1` [Compound 1045, (2S,4R)-N-[(2-{[8-(4-{4-amino-3-[4-(difluoromethanesulfonamido)-3-[(1S)-1-(4-fluorophenyl)ethoxy]phenyl]-1-methyl-1H-pyrazolo[4,3-c]pyridin-7-yl}-1H-pyrazol-1-yl)octyl]oxy}-4-(4-methyl-1,3-thiazol-5-yl)phenyl)methyl]-1-[(2S)-2-[(1-fluorocyclopropyl)formamido]-3,3-dimethylbutanoyl]-4-hydroxypyrrolidine-2-carboxamide]: the pKd on human MLKL (full length) was 6.00 to 8.00. Further, at endogenous MLKL in MDF, the DC50 was below 1 µM.
As to `C[C@H](Oc1cc(-c2nn(C)c3c(-c4cnn(C5CCN(C(=O)Cc6cccc7c6C(=O)N(C6CCC(=O)NC6=O)C7=O)CC5)c4)cnc(N)c23)ccc1NS(=O)(=O)C(F)F)c1ccc(F)cc1` (stereo partly drawn) [Compound 1137, N-(4-{4-amino-7-[1-(1-{2-[2-(2,6-dioxopiperidin-3-yl)-1,3-dioxo-2,3-dihydro-1H-isoindol-4-yl]acetyl}piperidin-4-yl)-1H-pyrazol-4-yl]-1-methyl-1H-pyrazolo[4,3-c]pyridin-3-yl}-2-[(1S)-1-(fluorophenyl)ethoxy]phenyl)-1,1-difluoromethanesulfonamide], the pIC50 in assay [1] was 5.00 to 6.00. Moreover, on endogenous MLKL in MDF, the DC50 was below 1 µM.

Usually pKd stands for the Kd on a negative log10 scale, so that one unit is a factor of ten. Usually pIC50 stands for −log10 of the IC50, conventionally taken in molar units. One may read the DC50 as the concentration at which degradation of the target reaches its halfway point.
